Laboratory results reported in publication PMC9120017, “Inhibition mechanism of the chloride channel TMEM16A by the pore blocker 1PBC” (Nature Communications, 2022).
Where two headings read alike, the source gives them in different places.

Biological target: T1, wild-type mouse TMEM16A (Mus musculus, UniProt Q8BHY3)
T1 construct: expressed in transfected cells; host or cells: HEK293T
T1 sequence (Q8BHY3 1-960): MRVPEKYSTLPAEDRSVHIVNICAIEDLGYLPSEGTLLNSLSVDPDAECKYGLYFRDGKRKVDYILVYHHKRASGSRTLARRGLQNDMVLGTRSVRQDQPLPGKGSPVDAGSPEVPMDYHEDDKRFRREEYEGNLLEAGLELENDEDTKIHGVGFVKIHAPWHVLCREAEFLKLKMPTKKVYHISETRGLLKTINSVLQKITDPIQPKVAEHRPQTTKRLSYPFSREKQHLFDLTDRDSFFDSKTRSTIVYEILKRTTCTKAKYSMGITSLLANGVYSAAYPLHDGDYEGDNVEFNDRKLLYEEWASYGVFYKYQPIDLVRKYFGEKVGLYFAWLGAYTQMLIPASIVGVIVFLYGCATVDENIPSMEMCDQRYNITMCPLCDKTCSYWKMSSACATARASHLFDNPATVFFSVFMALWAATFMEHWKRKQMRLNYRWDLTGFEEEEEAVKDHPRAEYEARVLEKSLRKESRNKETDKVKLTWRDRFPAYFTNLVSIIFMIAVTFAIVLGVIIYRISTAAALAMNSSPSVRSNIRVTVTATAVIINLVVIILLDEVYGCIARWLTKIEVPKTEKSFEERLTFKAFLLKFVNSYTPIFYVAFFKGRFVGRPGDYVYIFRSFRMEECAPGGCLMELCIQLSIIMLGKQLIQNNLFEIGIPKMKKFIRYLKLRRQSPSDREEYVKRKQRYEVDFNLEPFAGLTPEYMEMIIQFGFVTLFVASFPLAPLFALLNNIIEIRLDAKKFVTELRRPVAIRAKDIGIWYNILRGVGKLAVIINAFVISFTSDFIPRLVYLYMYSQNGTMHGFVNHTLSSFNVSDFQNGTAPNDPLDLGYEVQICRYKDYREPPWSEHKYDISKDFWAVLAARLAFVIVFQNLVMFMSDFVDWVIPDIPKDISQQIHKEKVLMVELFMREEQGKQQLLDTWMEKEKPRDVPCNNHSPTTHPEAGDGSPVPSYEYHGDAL
Test: Inside-out patch recording of 1PBC block, wild-type TMEM16A
Format: cell-based
Settings: for remaining activity at 3 µM / remaining activity at 10 µM: read-out: I/Imax
Description: HEK293T cells (ATCC CRL-1573) were maintained in Dulbecco’s modified Eagle’s medium (DMEM; Sigma-Aldrich) supplemented with 10 U ml^−1 penicillin, 0.1 mg ml^−1 streptomycin (Sigma-Aldrich), 2 mM L-glutamine (Sigma-Aldrich), and 10% FBS (Sigma-Aldrich) in a humidified atmosphere containing 5% CO2 at 37 °C. HEK293S GnTI^− cells (ATCC CRL-3022) were maintained in HyClone HyCell TransFx-H medium (GE Healthcare) supplemented with 10 U ml^−1 penicillin, 0.1 mg ml^−1 streptomycin, 4 mM L-glutamine, 0.15% poloxamer 188 (Sigma-Aldrich), and 1% FBS in an atmosphere containing 5% CO2 at 185 rpm at 37 °C. The ac splice variant of mouse TMEM16A (UniProt ID: Q8BHY3), mouse TMEM16B (UniProt ID: Q8CFW1), or mouse TMEM16F (UniProt ID: Q6P9J9) bearing a 3C cleavage site, a Venus YFP, a Myc tag, and a Streptavidin-binding peptide (SBP) downstream of the open reading frame in a modified pcDNA3.1 vector (Invitrogen) were used as described previously[21],[31]. Mutations were introduced using a modified QuikChange method[58] and were verified by sequencing.
HEK293T cells were transfected with 3–4 μg DNA per 6 cm Petri dish using the calcium phosphate co-precipitation method and were used within 24–96 h after transfection. Recordings were performed on inside-out patches excised from HEK293T cells expressing the construct of interest. Patch pipettes were pulled from borosilicate glass capillaries (O.D. 1.5 mm, I.D. 0.86 mm, Sutter Instrument) and were fire-polished with a microforge (Narishige) before use. Pipette resistance was typically 3–8 MΩ when filled with the recording solutions detailed below. Seal resistance was typically 4 GΩ or higher. Voltage-clamp recordings were made using Axopatch 200B, Digidata 1550, and Clampex 10.7 (Molecular Devices). Analog signals were filtered with the in-built 4-pole Bessel filter at 10 kHz and were digitized at 20 kHz. Solution exchange was achieved using a gravity-fed system through a theta glass pipette mounted on an ultra-fast piezo-driven stepper (Siskiyou). […] All recordings were performed at 20 °C.
A symmetrical ionic condition was used throughout. Stock solution with Ca^2+-EGTA contained 150 mM NaCl, 5.99 mM Ca(OH)2, 5 mM EGTA, and 10 mM HEPES at pH 7.40. Stock solution with EGTA contained 150 mM NaCl, 5 mM EGTA, and 10 mM HEPES at pH 7.40. Free Ca^2+ concentrations were adjusted by mixing the stock solutions at the required ratios calculated using the WEBMAXC program (http://web.stanford.edu/~cpatton/webmaxcS.htm). Patch pipettes were filled with the stock solution with Ca^2+-EGTA, which has a free Ca^2+ concentration of 1 mM. 1PBC (ChemBridge) stock was reconstituted in anhydrous DMSO (Sigma-Aldrich) at 100 mM and stored at −20 °C. Working solutions with 1PBC were prepared by serial dilution. Unless otherwise stated, experiments were performed at a saturating Ca^2+ concentration as shown in Supplementary Table 1 and the primary data were corrected for current rundown as described previously[21],[25].
Concentration-response relations, obtained from the ratio of the I-V plots before and after the application of the blocker, were fitted to the Hill equation,1 I/Imax=1/1+IC50/[blocker]^h where I/Imax is the normalized current responses, IC50 defines the concentration at which inhibition is at its half-maximum, and h is the Hill coefficient.

## N#Cc1c(C(F)(F)F)cc(O)n2c1nc1ccccc12 [1PBC]
3 µM 1PBC, 60 mV, 2 µM Ca2+
  Steady-state current (normalized): 0.2233
  remaining activity at 3 µM: 40.5%
3 µM 1PBC, 80 mV, 2 µM Ca2+
  Steady-state current (normalized): 0.2697
  remaining activity at 3 µM: 38.1%
3 µM 1PBC, 100 mV, 2 µM Ca2+
  Steady-state current (normalized): 0.3173
  remaining activity at 3 µM: 37.3%
3 µM 1PBC, 120 mV, 2 µM Ca2+
  Steady-state current (normalized): 0.3753
  remaining activity at 3 µM: 38.6%
3 µM 1PBC, 140 mV, 2 µM Ca2+
  Steady-state current (normalized): 0.4543
  remaining activity at 3 µM: 41.8%
3 µM 1PBC, -20 mV, 2 µM Ca2+
  Steady-state current (normalized): -0.1133
  remaining activity at 3 µM: 58.9%
3 µM 1PBC, -40 mV, 2 µM Ca2+
  Steady-state current (normalized): -0.2482
  remaining activity at 3 µM: 63.9%
3 µM 1PBC, -60 mV, 2 µM Ca2+
  Steady-state current (normalized): -0.3977
  remaining activity at 3 µM: 68.6%
3 µM 1PBC, -80 mV, 2 µM Ca2+
  Steady-state current (normalized): -0.557
  remaining activity at 3 µM: 72.6%
3 µM 1PBC, -100 mV, 2 µM Ca2+
  Steady-state current (normalized): -0.718
  remaining activity at 3 µM: 75.6%
3 µM 1PBC, -120 mV, 2 µM Ca2+
  Steady-state current (normalized): -0.8735
  remaining activity at 3 µM: 78.1%
3 µM 1PBC, -140 mV, 2 µM Ca2+
  Steady-state current (normalized): -1.031
  remaining activity at 3 µM: 80.3%
10 µM 1PBC, 0 mV, 2 µM Ca2+
  Steady-state current (normalized): 0.0007397
  remaining activity at 10 µM: 30.3%
10 µM 1PBC, 400 nM Ca2+, 80 mV
  I/Imax scaled to open probability: 0.1226
10 µM 1PBC, 800 nM Ca2+, 80 mV
  I/Imax scaled to open probability: 0.1094
10 µM 1PBC, 2 µM Ca2+, 80 mV
  I/Imax scaled to open probability: 0.1474
10 µM 1PBC, 20 mV, 2 µM Ca2+
  Steady-state current (normalized): 0.04925
  remaining activity at 10 µM: 25.3%
10 µM 1PBC, 40 mV, 2 µM Ca2+
  Steady-state current (normalized): 0.08188
  remaining activity at 10 µM: 21.7%
10 µM 1PBC, 60 mV, 2 µM Ca2+
  Steady-state current (normalized): 0.1024
  remaining activity at 10 µM: 18.6%
10 µM 1PBC, 80 mV, 2 µM Ca2+
  Steady-state current (normalized): 0.1202
  remaining activity at 10 µM: 17%
10 µM 1PBC, 100 mV, 2 µM Ca2+
  Steady-state current (normalized): 0.1383
  remaining activity at 10 µM: 16.3%
10 µM 1PBC, 120 mV, 2 µM Ca2+
  Steady-state current (normalized): 0.1588
  remaining activity at 10 µM: 16.3%
10 µM 1PBC, 140 mV, 2 µM Ca2+
  Steady-state current (normalized): 0.1862
  remaining activity at 10 µM: 17.1%
10 µM 1PBC, -20 mV, 2 µM Ca2+
  Steady-state current (normalized): -0.06795
  remaining activity at 10 µM: 35.3%
10 µM 1PBC, -40 mV, 2 µM Ca2+
  Steady-state current (normalized): -0.1586
  remaining activity at 10 µM: 40.9%
